According to PMC7529893, “Structural basis for substrate recognition and chemical inhibition of oncogenic MAGE ubiquitin ligases” (Nature Communications, 2020):

molecular target: T1, MAGE-A11:PCF11 interaction (GST-MAGE-A11 and FAM-PCF11_4) (Homo sapiens, UniProt P43364); experiment: TR-FRET primary / single point screen at 15 µM; type: binding; settings: single point TR-FRET screening of 797 quinoline compounds against MAGE-A11:PCF11
T1 construct: GST-MAGE-A11 MHD (human MAGE-A11 MHD amino acid 218-429); made in house; host or cells: E. coli BL21(DE3)
T1 sequence (P43364 218-429): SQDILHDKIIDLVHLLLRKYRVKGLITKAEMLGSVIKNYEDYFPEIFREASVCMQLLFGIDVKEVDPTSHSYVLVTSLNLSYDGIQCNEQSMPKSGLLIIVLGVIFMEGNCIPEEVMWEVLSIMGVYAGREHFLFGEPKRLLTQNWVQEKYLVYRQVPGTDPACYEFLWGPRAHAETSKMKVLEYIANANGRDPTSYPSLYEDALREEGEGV
How it was run: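 Single-point screen at 15 µM final compound in 50 mM Tris pH 7.5, 20 mM MgCl2, 0.1 mg/ml BSA, 1 mM DTT, with 200 nM FAM-PCF11_4, 5 nM Tb-anti-GST and 5 nM GST-MAGE-A11. After 90 min at room temperature, the 520/490 nm TR-FRET ratio (340 nm excitation) gave %Inhibition against no-MAGE-A11 and DMSO controls.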

Row | SMILES | percent inhibition (TR-FRET)
1 | COc1ccc2nc3cc(Cl)ccc3c(NCCCNCc3ccoc3)c2c1 [SJ000520916] | -299.405
2 | COc1cc2ncc(S(=O)(=O)c3ccc(Cl)cc3)c(N3CCN(C)CC3)c2cc1OC [SJ000083953] | 4.674
3 | COc1ccc(F)cc1CN(CCCCNc1ccnc2cc(Cl)ccc12)Cc1ccccc1 [SJ000357496] | 20.7772
4 | COc1ccc(N2CCN(c3c(S(=O)(=O)c4ccccc4)cnc4ccc(C)cc34)CC2)cc1 [SJ000083981] | -37.966
5 | CCOc1ccc2ncc(C(=O)c3ccc(C)cc3)c(N3CCN(CC)CC3)c2c1 [SJ000247284] | -14.2514
6 | CC(C)CN(CCCCNc1ccnc2cc(Cl)ccc12)Cc1ccccc1 [SJ000357470] | 25.4682
7 | COc1ccc2ncc(S(=O)(=O)c3ccc(C)c(C)c3)c(N3CCN(c4ccccc4F)CC3)c2c1 [SJ000117078] | -8.289
8 | CCCCN(CCCC)CC(=O)Nc1c2c(nc3ccccc13)N(C)CC2 [SJ000331523] | 2.503
9 | Cc1ccc(S(=O)(=O)c2cnc3ccc(Cl)cc3c2N2CCN(c3ccccc3)CC2)cc1 [SJ000117050] | -3.321
10 | COc1ccc2ncc(S(=O)(=O)c3ccccc3)c(N3CCN(Cc4ccccc4)CC3)c2c1 [SJ000247248] | -71.1577
11 | CN(C)c1cc(NC(=O)CNC(C)(C)CC(C)(C)C)c2ccccc2n1 [SJ000111678] | 10.6249
12 | CCCN(CCCNc1c2ccc(Cl)cc2nc2ccc(OC)cc12)Cc1ccc(Br)o1 [SJ000520929] | -137.318
13 | C=CCOCC(O)CN1CCN(c2cc(C)nc3ccccc23)CC1 (centres unmarked) [SJ000227652] | -0.207
14 | CCOc1ccc2ncc(S(=O)(=O)c3ccccc3)c(N3CCN(CC)CC3)c2c1 [SJ000083959] | 4.534
15 | Oc1c(F)cc(F)cc1CN(CCCCNc1ccnc2cc(Cl)ccc12)Cc1ccccc1 [SJ000357506] | 30.6494
16 | CCOc1ccc2ncc(S(=O)(=O)c3ccc(Cl)cc3)c(N3CCN(CC)CC3)c2c1 [SJ000083969] | -4.989
17 | Clc1ccc2c(NCCCCN(Cc3ccccc3)CC3CCCCC3)ccnc2c1 [SJ000361194] | 41.9261
18 | Cc1ccc(S(=O)(=O)N2CCN(c3ccnc4cc(Cl)ccc34)CC2)cc1 [SJ000192519] | -38.6966
19 | CCc1ccc2ncc(S(=O)(=O)c3ccc(OC)cc3)c(N3CCN(c4ccccc4)CC3)c2c1 [SJ000117056] | -2.791
20 | CCN1CCN(c2c(S(=O)(=O)c3ccccc3)cnc3ccc(OC)cc23)CC1 [SJ000083958] | 0.1242
21 | CCCN(CCCNc1c2ccc(Cl)cc2nc2ccc(OC)cc12)Cc1ccc(C)s1 [SJ000520927] | -124.818

Continued, values first:

Row | percent inhibition (TR-FRET) | SMILES
22 | -329.654 | CCCN(CCCNc1c2ccc(Cl)cc2nc2ccc(OC)cc12)Cc1ccc([N+](=O)[O-])o1 [SJ000523022]
23 | -405.549 | CCCCNCCCNc1c2ccc(Cl)cc2nc2ccc(OC)cc12 [SJ000520995]
24 | 13.0905 | CN(C)c1ccc(CN2CCC(Nc3ccnc4cc(Cl)ccc34)CC2)cc1 [SJ000523102]
25 | -271.121 | CCCN(CCCNc1c2ccc(Cl)cc2nc2ccc(OC)cc12)Cc1ccccc1OC [SJ000520950]
26 | 18.5377 | Cc1cccc(CN2CCC(Nc3ccnc4cc(Cl)ccc34)CC2)c1 [SJ000523101]
27 | 0.05797 | COc1ccc(CN(CCCCNc2ccnc3cc(Cl)ccc23)Cc2ccccc2)cc1OC [SJ000522728]
28 | -354.997 | COc1ccc(F)c(CNCCCNc2c3ccc(Cl)cc3nc3ccc(OC)cc23)c1 [SJ000520998]
29 | -0.9977 | Fc1ccccc1CN1CCC(Nc2ccnc3cc(Cl)ccc23)CC1 [SJ000523091]
30 | -336.863 | COc1ccc2nc3cc(Cl)ccc3c(NCCCNCCCSC)c2c1 [SJ000523025]
31 | -1.958 | Fc1ccc(CN2CCC(Nc3ccnc4cc(Cl)ccc34)CC2)cc1F [SJ000523089]

same assay, conditions: single point TR-FRET screening of quinoline compounds against MAGE-A11:PCF11; 15 µM

Row | SMILES | percent inhibition (TR-FRET)
32 | CCCCCCN(CCC)CCCNc1ccnc2cc(C(F)(F)F)ccc12 [SJ000523083] | 34.9477
33 | CCCN(CCCNc1ccnc2cc(C(F)(F)F)ccc12)Cc1cccs1 [SJ000361253] | 19.5346
34 | CCCN(CCCNc1ccnc2cc(Cl)ccc12)Cc1ccc(Br)o1 [SJ000311195] | 14.4758
35 | Clc1ccc2c(NCCCN(Cc3ccccc3)Cc3ccccc3)ccnc2c1 [SJ000361166] | 14.7648
36 | COc1cc(Cc2ccc3c(NCCCNCc4ccco4)ccnc3c2)cc(OC)c1 [SJ000311310] | 23.7879
37 | CCCN(CCCNc1ccnc2cc(C(F)(F)F)ccc12)Cc1cc(C(F)(F)F)ccc1OC [SJ000520486] | 8.188
38 | FC(F)(F)c1ccc2c(NCCCNCc3ccco3)ccnc2c1 [SJ000361113] | 18.0466
39 | CCC(C)CNCCCNc1ccnc2cc(C(F)(F)F)ccc12 (centres unmarked) [SJ000361112] | 18.4697
40 | CCCN(CCCNc1ccnc2cc(C(F)(F)F)ccc12)Cc1cccc(OC(F)(F)F)c1 [SJ000520473] | 9.085
41 | CCOC(=O)c1ccc2ncc(C(=O)OCC)c(NCCCN3CCOCC3)c2c1 [SJ000176583] | 11.255
42 | CCCN(CCCNc1c2ccc(Cl)cc2nc2ccc(OC)cc12)Cc1cccc(OC)c1O [SJ000520930] | -81.9559
43 | CCCN(CCCNc1ccnc2cc(C(F)(F)F)ccc12)Cc1c(F)cccc1OC [SJ000361262] | 29.228
44 | COc1ccc(CN(CCCNc2ccnc3cc(Cl)ccc23)Cc2ccccc2)cc1F [SJ000520437] | 23.6478
45 | CCCN(CCCNc1c2ccc(Cl)cc2nc2ccc(OC)cc12)Cc1ccc(Br)s1 [SJ000520924] | -56.4502
46 | CCCN(CCCNc1ccnc2cc(C(F)(F)F)ccc12)Cc1ccncc1 [SJ000361251] | 17.4864
47 | CN(C)CCCNc1c2ccccc2nc2ccccc12 [SJ000044378] | 16.7674
48 | CCC(CC)CN(CCCNc1ccnc2cc(Cl)ccc12)Cc1ccccc1 [SJ000361172] | 22.9132
49 | Clc1ccc2c(NCCCNCc3ccoc3)ccnc2c1 [SJ000520913] | -11.15
50 | FC(F)(F)Oc1ccccc1CN(CCCNc1ccnc2cc(Cl)ccc12)Cc1ccccc1 [SJ000357599] | 19.7634
51 | CCCN(CCCNc1ccnc2cc(C(F)(F)F)ccc12)CC1CCCCC1 [SJ000361268] | 33.314
52 | Fc1cccc(C(F)(F)F)c1CN(CCCNc1ccnc2cc(Cl)ccc12)Cc1ccccc1 [SJ000520467] | 22.0104
53 | Fc1ccc(CN(CCCNc2ccnc3cc(Cl)ccc23)Cc2ccccc2)cc1F [SJ000361174] | 27.5505

More lines, now with the values ahead:

Row | percent inhibition (TR-FRET) | SMILES
54 | -81.4922 | COc1ccc2nc3cc(Cl)ccc3c(NCCCNCc3c(Cl)ccc(Cl)c3Cl)c2c1 [SJ000522960]
55 | -83.7446 | CCCN(CCCNc1c2ccc(Cl)cc2nc2ccc(OC)cc12)Cc1cc2ccccc2nc1Cl [SJ000522737]
56 | 31.7696 | CCCN(CCCNc1ccnc2cc(C(F)(F)F)ccc12)Cc1ccc(CC)cc1 [SJ000521009]
57 | 5.584 | Cc1c(CNCCCNc2ccnc3cc(Cl)ccc23)c(=O)n(-c2ccccc2)n1C [SJ000523058]
58 | 0.8927 | CCCN(CCCNc1ccnc2cc(C(F)(F)F)ccc12)Cc1nc(C)cs1 [SJ000521010]
59 | -46.0179 | CCCN(CCCNc1c2ccc(Cl)cc2nc2ccc(OC)cc12)Cc1cc(C(F)(F)F)ccc1OC [SJ000522985]
60 | -81.2358 | CCCN(CCCNc1c2ccc(Cl)cc2nc2ccc(OC)cc12)Cc1cc(OC)ccc1F [SJ000522965]
61 | 14.6566 | CCCN(CCCNc1ccnc2cc(C(F)(F)F)ccc12)Cc1ccc(OC)c(OC)c1 [SJ000523079]
62 | 5.864 | CCCN(CCCNc1ccnc2cc(Cl)ccc12)Cc1cc2ccccc2s1 [SJ000522993]
63 | 15.0359 | FC(F)(F)c1ccc2c(NCCCNCc3cccnc3)ccnc2c1 [SJ000521042]
64 | 7.1241 | CCCN(CCCNc1ccnc2cc(C(F)(F)F)ccc12)Cc1nccn1C [SJ000575170]
65 | -82.146 | CCCN(CCCNc1c2ccc(Cl)cc2nc2ccc(OC)cc12)Cc1nc(C)cs1 [SJ000522966]
66 | 16.2885 | CCCCCN(CCC)CCCNc1ccnc2cc(Cl)ccc12 [SJ000522754]
67 | 12.0952 | CCCN(CCCNc1ccnc2cc(Cl)ccc12)Cc1ccc(Cl)cc1Cl [SJ000523043]
68 | 15.2459 | Clc1ccc2c(NCCCNCc3ccsc3)ccnc2c1 [SJ000523052]
69 | -47.4182 | COc1ccc2nc3cc(Cl)ccc3c(NCCCNCc3ccc(-c4cccc(Cl)c4)o3)c2c1 [SJ000522959]
70 | 5.164 | CCCN(CCCNc1ccnc2cc(C(F)(F)F)ccc12)Cc1scnc1C [SJ000575179]
71 | 15.4935 | CCCN(CCCNc1ccnc2cc(Cl)ccc12)Cc1c2ccccc2cc2ccccc12 [SJ000522762]
